# Source: ChEMBL document CHEMBL3882241, “Compounds inhibiting the binding of sap for treating osteoarthritis” (2006)
# The source made the active and inactive calls. No cut-off for these calls is given here.
# How the values were obtained:
# [1] = target: Serum amyloid P-component (Homo sapiens) (UniProt P02743); assay: Inhibition of calcium dependent [125I]serum amyloid P-component (unknown origin) binding to immobilized influenza virus A/Shanghai/24/90 at 20 uM incubated for 2 hrs by fluorescence/electron microscopy relative to control
# Serum amyloid P-component (Homo sapiens), sequence (P02743 whole entry): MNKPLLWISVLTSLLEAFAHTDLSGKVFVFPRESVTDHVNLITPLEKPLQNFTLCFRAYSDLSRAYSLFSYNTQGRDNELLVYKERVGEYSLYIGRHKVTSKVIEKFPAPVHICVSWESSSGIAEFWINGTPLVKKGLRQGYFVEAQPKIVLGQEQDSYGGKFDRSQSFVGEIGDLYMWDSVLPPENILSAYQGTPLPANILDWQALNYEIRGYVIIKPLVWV
# [2] = target: Serum amyloid P-component (Homo sapiens) (UniProt P02743); assay: Inhibition of calcium dependent [125I]serum amyloid P-component (unknown origin) binding to immobilized Neisseria meningitidis at 200 nM incubated for 2 hrs by fluorescence/electron microscopy relative to control
# [3] = target: Serum amyloid P-component (Homo sapiens) (UniProt P02743); assay: Inhibition of calcium dependent [125I]serum amyloid P-component (unknown origin) binding to immobilized chicken erythrocyte native long chromatin at 200 nM incubated for 2 hrs by gamma counting relative to control
# [4] = target: Serum amyloid P-component (Homo sapiens) (UniProt P02743); assay: Inhibition of calcium dependent [125I]serum amyloid P-component (unknown origin) binding to immobilized chicken erythrocyte native long chromatin at 2 mM incubated for 2 hrs by gamma counting relative to control
# [5] = target: Serum amyloid P-component (Homo sapiens) (UniProt P02743); assay: Inhibition of calcium dependent [125I]serum amyloid P-component (unknown origin) binding to immobilized Neisseria meningitidis at 200 uM incubated for 2 hrs by fluorescence/electron microscopy relative to control
# [6] = target: Serum amyloid P-component (Homo sapiens) (UniProt P02743); assay: Inhibition of calcium dependent [125I]serum amyloid P-component (unknown origin) binding to immobilized Neisseria meningitidis at 2 uM incubated for 2 hrs by fluorescence/electron microscopy relative to control
# [7] = target: Serum amyloid P-component (Homo sapiens) (UniProt P02743); assay: Inhibition of calcium dependent [125I]serum amyloid P-component (unknown origin) binding to immobilized chicken erythrocyte native long chromatin at 200 uM incubated for 2 hrs by gamma counting relative to control
# [8] = target: Serum amyloid P-component (Homo sapiens) (UniProt P02743); assay: Inhibition of calcium dependent [125I]serum amyloid P-component (unknown origin) binding to immobilized influenza virus A/Shanghai/24/90 at 200 uM incubated for 2 hrs by fluorescence/electron microscopy relative to control
# [9] = target: Serum amyloid P-component (Homo sapiens) (UniProt P02743); assay: Inhibition of calcium dependent [125I]serum amyloid P-component (unknown origin) binding to immobilized Neisseria meningitidis at 2 mM incubated for 2 hrs by fluorescence/electron microscopy relative to control
# [10] = target: Serum amyloid P-component (Homo sapiens) (UniProt P02743); assay: Inhibition of calcium dependent [125I]serum amyloid P-component (unknown origin) binding to immobilized chicken erythrocyte native long chromatin at 20 uM incubated for 2 hrs by gamma counting relative to control
# [11] = target: Serum amyloid P-component (Homo sapiens) (UniProt P02743); assay: Inhibition of calcium dependent [125I]serum amyloid P-component (unknown origin) binding to immobilized influenza virus A/Shanghai/24/90 at 2 uM incubated for 2 hrs by fluorescence/electron microscopy relative to control
# [12] = target: Serum amyloid P-component (Homo sapiens) (UniProt P02743); assay: Inhibition of calcium dependent [125I]serum amyloid P-component (unknown origin) binding to immobilized Neisseria meningitidis at 20 uM incubated for 2 hrs by fluorescence/electron microscopy relative to control
# [13] = target: Serum amyloid P-component (Homo sapiens) (UniProt P02743); assay: Inhibition of calcium dependent [125I]serum amyloid P-component (unknown origin) binding to immobilized influenza virus A/Shanghai/24/90 at 200 nM incubated for 2 hrs by fluorescence/electron microscopy relative to control
# [14] = target: Serum amyloid P-component (Homo sapiens) (UniProt P02743); assay: Inhibition of calcium dependent [125I]serum amyloid P-component (unknown origin) binding to immobilized chicken erythrocyte native long chromatin at 2 uM incubated for 2 hrs by gamma counting relative to control
# [15] = target: Serum amyloid P-component (Homo sapiens) (UniProt P02743); assay: Inhibition of calcium dependent [125I]serum amyloid P-component (unknown origin) binding to immobilized influenza virus A/Shanghai/24/90 at 2 mM incubated for 2 hrs by fluorescence/electron microscopy relative to control
# [16] = target: Serum amyloid P-component (Homo sapiens) (UniProt P02743); assay: Inhibition of serum amyloid P-component (unknown origin) binding to immobilized amyloid beta 1 to 42 fibrils at 500 umol/L in presence of calcium by surface plasma resonance
# [17] = target: Serum amyloid P-component (Homo sapiens) (UniProt P02743); assay: Inhibition of serum amyloid P-component (unknown origin) binding to immobilized amyloid beta 1 to 42 fibrils in presence of EDTA followed by re-exposure to SAP and calcium addition and re-exposure to compound at 50 umol/L by surface plasma resonance
# [18] = target: Serum amyloid P-component (Homo sapiens) (UniProt P02743); assay: Inhibition of serum amyloid P-component (unknown origin) binding to immobilized amyloid beta 1 to 42 fibrils at 100 umol/L pre-incubated before calcium addition by surface plasma resonance
# Homo sapiens [19] = assay: Reduction of serum amyloid P-component in amyloidosis patient at 15 mg, sc bid for 2 months; assay type: functional
# Homo sapiens [20] = assay: Reduction of serum amyloid P-component in amyloidosis patient at 10 mg, sc bid for 3 months; assay type: functional
# [21] = target: Serum amyloid P-component (Homo sapiens) (UniProt P02743); details: 10 mM
# Description: Inhibition of calcium dependent [125I]serum amyloid P-component (unknown origin) binding to immobilized Neisseria meningitidis at 10 mM incubated for 2 hrs by fluorescence/electron microscopy relative to control
Compound,inhibition [1] [%],inhibition [2] [%],inhibition [3] [%],inhibition [4] [%],inhibition [5] [%],inhibition [6] [%],inhibition [7] [%],inhibition [8] [%],inhibition [9] [%],inhibition [10] [%],inhibition [11] [%],inhibition [12] [%],inhibition [13] [%],inhibition [14] [%],inhibition [15] [%],other results
O=C(O)[C@H]1CCCN1C(=O)Cc1ccc(CC(=O)N2CCC[C@@H]2C(=O)O)c2ccccc12,95,13,15,100,100,69,96,94,100,77,64,89,4,35,98,–
NCCOP(=O)(O)O,42,7,3,94,41,18,59,51,95,36,8,32,1,9,69,–
Cc1c(OCC(=O)N2CCC[C@@H]2C(=O)O)cccc1OCC(=O)N1CCC[C@@H]1C(=O)O,81,1,0,98,100,64,95,81,100,65,65,93,24,22,85,–
O=C(O)[C@H]1CCCN1C(=O)Cc1cc(O)c(CC(=O)N2CCC[C@@H]2C(=O)O)cc1O,80,1,0,97,100,76,88,89,100,78,57,95,24,45,89,–
C[N+](C)(C)CCOP(=O)([O-])O,5,0,2,19,3,5,3,5,24,0,2,4,0,0,3,–
O=C(O)[C@H]1CCCN1C(=O)Cc1cccc(CC(=O)N2CCC[C@@H]2C(=O)O)c1,73,28,0,98,100,64,94,77,100,56,68,92,25,18,82,–
C[C@H](CS)C(=O)N1CCC[C@@H]1C(=O)O,40,3,–,–,–,42,–,51,–,–,30,50,12,–,–,inhibition [16]: Active; inhibition [17]: Active; inhibition [18]: Active
COc1cccc(OCC(=O)N2CCC[C@@H]2C(=O)O)c1OCC(=O)N1CCC[C@@H]1C(=O)O,62,19,11,100,93,74,96,77,100,75,52,92,16,–,89,–
O=C(O)[C@H]1CCCN1C(=O)CCCCC(=O)N1CCC[C@@H]1C(=O)O,90,5,1,93,79,61,87,96,100,69,81,74,36,29,98,inhibition (INH) (Homo sapiens [19]): 95%; inhibition (INH) (Homo sapiens [20]): 95%
O=C(O)[C@H]1CCCN1C(=O)COc1cccc2c(OCC(=O)N3CCC[C@@H]3C(=O)O)cccc12,64,30,12,96,100,72,82,76,100,74,51,81,23,51,80,–
O=C(O)[C@H]1CCCN1C(=O)COc1ccc(OCC(=O)N2CCC[C@@H]2C(=O)O)cc1,82,0,1,91,65,65,75,84,100,56,77,74,3,36,87,–
O=C(O)[C@H]1CCCN1C(=O)[C@H]1CC[C@@H](C(=O)N2CCC[C@@H]2C(=O)O)CC1,83,31,1,100,100,73,94,89,100,67,76,93,0,35,92,–
O=C(O)CN(CCN(CC(=O)O)CC(=O)O)CC(=O)O,–,–,–,–,–,–,–,–,–,–,–,–,–,–,–,inhibition [21]: 100%
O=C(O)[C@H]1CCCN1C(=O)Cc1ccc(CC(=O)N2CCC[C@@H]2C(=O)O)cc1,85,7,4,92,100,64,66,89,100,39,65,73,37,19,89,–
O=C(O)[C@H]1CCCN1C(=O)COc1ccccc1OCC(=O)N1CCC[C@@H]1C(=O)O,88,18,7,96,100,77,89,93,100,77,68,87,44,34,94,–
